According to patent US7687484B2, “Transporter enhanced corticosteroid activity” (priority 2006, dated 2010):
Like-named read-outs stand apart in the source and are kept apart here.

Key:
[1] = logP reported in literature; cited from earlier work
glucocorticoid receptor [2] = target: T1, glucocorticoid receptor (Homo sapiens, UniProt P04150); test: Relative binding affinity for the glucocorticoid receptor (GCR/GR); conditions: GRs were calculated from RBAs; read-out: GR Est. IC50
T1 sequence (P04150 1-777): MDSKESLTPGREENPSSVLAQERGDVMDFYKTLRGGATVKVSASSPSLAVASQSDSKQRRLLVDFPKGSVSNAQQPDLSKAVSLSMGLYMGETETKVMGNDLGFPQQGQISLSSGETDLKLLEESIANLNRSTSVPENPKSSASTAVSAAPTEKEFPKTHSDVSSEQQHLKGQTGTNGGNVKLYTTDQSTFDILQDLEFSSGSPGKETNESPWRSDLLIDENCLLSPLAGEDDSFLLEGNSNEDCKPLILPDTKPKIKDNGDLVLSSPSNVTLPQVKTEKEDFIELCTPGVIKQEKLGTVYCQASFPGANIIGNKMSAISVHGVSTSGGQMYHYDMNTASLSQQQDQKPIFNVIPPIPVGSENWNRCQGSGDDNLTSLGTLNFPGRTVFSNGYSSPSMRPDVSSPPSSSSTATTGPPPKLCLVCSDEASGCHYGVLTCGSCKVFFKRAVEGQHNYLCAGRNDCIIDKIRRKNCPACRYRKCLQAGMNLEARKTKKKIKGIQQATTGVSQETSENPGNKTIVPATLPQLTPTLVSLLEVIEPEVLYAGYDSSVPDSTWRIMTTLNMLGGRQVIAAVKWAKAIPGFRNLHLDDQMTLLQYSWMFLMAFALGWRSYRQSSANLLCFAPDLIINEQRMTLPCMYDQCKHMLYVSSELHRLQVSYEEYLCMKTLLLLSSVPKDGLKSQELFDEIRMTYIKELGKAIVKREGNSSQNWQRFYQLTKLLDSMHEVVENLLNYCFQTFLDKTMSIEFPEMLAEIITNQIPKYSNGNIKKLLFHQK

[3] = test system: forearms of human volunteers; test: Human vasoconstriction (blanching) testing; type: in vivo; set-up: key to Vasoconstriction activity (total score of 4 tests): sum of 4 tests, each 0 = normal skin to 4 = very intense pallor
Procedure: Solutions of LE, HC and PRN (0.1 or 1 mM) alone, or mixtures of LE and HC (0.1+0.1 mM, or 1+1 mM), or LE and PRN (0.1+0.1 mM, or 1+1 mM) were prepared with a vehicle containing absolute ethanol and propylene glycol (9:1). […] After evaporation of ethanol (20 min), the films were applied to the forearms of human volunteers for 4 hours. Subsequently, the vasoconstriction reaction was read and judged by the appearance of pallor at various time intervals after the removal of the discs and films. The grading scale was as follows: 0, normal skin; 1, slight pallor; 2, pallor with at least two corners outlined; 3, even pallor with a clear outlined of the application sites; 4, very intense pallor. Due to the relatively high variations in response between the volunteers, a total score of 4 tests at each time point was taken for the activity evaluation.

transcortin (CBG) = target: T2, transcortin (CBG) (Homo sapiens, UniProt P08185); test: Binding of corticosteroids to transcortin: 3H-cortisol competition in charcoal-treated diluted plasma
T2 construct: from tissue; host or cells: plasma from venous blood of healthy volunteers, charcoal-treated, diluted 100-fold
T2 sequence (P08185 23-405): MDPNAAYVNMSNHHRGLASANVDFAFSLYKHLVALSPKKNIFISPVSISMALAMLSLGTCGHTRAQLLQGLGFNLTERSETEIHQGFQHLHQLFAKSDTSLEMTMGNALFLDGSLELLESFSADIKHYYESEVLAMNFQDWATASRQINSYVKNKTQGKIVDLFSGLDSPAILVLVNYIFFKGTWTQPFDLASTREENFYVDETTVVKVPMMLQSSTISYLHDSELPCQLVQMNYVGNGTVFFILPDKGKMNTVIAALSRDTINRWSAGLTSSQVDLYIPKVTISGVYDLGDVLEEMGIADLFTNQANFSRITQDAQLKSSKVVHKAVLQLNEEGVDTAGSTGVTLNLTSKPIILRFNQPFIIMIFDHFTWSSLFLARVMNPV
Procedure: Experimental procedure: Venous blood was collected from healthy volunteers into heparin-containing tubes (5 Us/100 ml serum) and cells were separated from plasma by centrifugation (1500 g for 15 min). […] Charcoal-treated plasma was diluted 100-fold with binding buffer (10 mM Tris-HCl; 2 mM DTT (dithiotreitol); 1.5 mM EDTA; 0.02 M Na2MoO4; 10% Glycerol; pH 7.4) and was stored aliquoted at −80° C. […] The assay ingredients were mixed and the tubes were incubated for 1 hour on ice. At the end of the incubation, 0.2 ml of charcoal suspension (0.5% Norit A and 0.05% BSA) was added to each tube. The tubes were briefly agitated and incubated for an additional 10 min at 0° C. They were then centrifuged for 10 min at 15 000 g, and the same aliquots from the clear supernatants were quantitatively decanted into counting vials and combined with 3 ml of toluene-based scintillation fluid. […] Specific binding and IC50-values were calculated.

[4] = anti-inflammatory activity, LE vs hydrocortisone; cited from earlier work
glucocorticoid receptor [5] = target: T1, glucocorticoid receptor; conditions: cited from earlier work

- IC50 (glucocorticoid receptor [2]): 4 nM
- IC50 (transcortin (CBG); 3 nM 3H-cortisol, 1 hour on ice, plasma diluted 100-fold, read-out: IC50-values (nM) average ± SEM (n)): 272 ± 27 nM
- IC50 (transcortin (CBG); estimated, unpublished results Bodor, Kurucz 2006, read-out: CBG Est. IC50): 270 nM
SMILES: CCOC(=O)O[C@]1(C(=O)OCCl)CC[C@H]2[C@@H]3CCC4=CC(=O)C=C[C@]4(C)[C@H]3[C@@H](O)C[C@@]21C [Loteprednol etabonate, chloromethyl 17α-ethoxycarbonyloxy-11β-hydroxyandrosta-1,4-dien-3-one-17β-carboxylate]
- logP [1]: 3.03
- Vasoconstriction activity (total score of 4 tests) ([3]; 0.1 mM, 2 hr after removal, 4 h application): 2
- Vasoconstriction activity (total score of 4 tests) ([3]; 0.1 mM, 4 hr after removal): 3
- Vasoconstriction activity (total score of 4 tests) ([3]; 0.1 mM, 6 hr after removal): 5
- Vasoconstriction activity (total score of 4 tests) ([3]; 0.1 mM, 8 hr after removal): 5
- Vasoconstriction activity (total score of 4 tests) ([3]; 0.1 mM, 10 hr after removal): 3
- Vasoconstriction activity (total score of 4 tests) ([3]; 0.1 mM, 16 hr after removal): 1
- Vasoconstriction activity (total score of 4 tests) ([3]; 0.1 mM, 18 hr after removal): 1
- Vasoconstriction activity (total score of 4 tests) ([3]; 0.1 mM, 24 hr after removal): 1
- Vasoconstriction activity (total score of 4 tests) ([3]; 1 mM, 2 hr after removal, 4 h application): 6
- Vasoconstriction activity (total score of 4 tests) ([3]; 1 mM, 4 hr after removal): 7
- Vasoconstriction activity (total score of 4 tests) ([3]; 1 mM, 6 hr after removal): 8
- Vasoconstriction activity (total score of 4 tests) ([3]; 1 mM, 8 hr after removal): 8
- Vasoconstriction activity (total score of 4 tests) ([3]; 1 mM, 10 hr after removal): 9
- Vasoconstriction activity (total score of 4 tests) ([3]; 1 mM, 16 hr after removal): 6
- Vasoconstriction activity (total score of 4 tests) ([3]; 1 mM, 18 hr after removal): 5
- Vasoconstriction activity (total score of 4 tests) ([3]; 1 mM, 24 hr after removal): 2
- Vasoconstriction activity alone (in words) ([3]; by itself, concentration range 0.1 to 1 mM, human skin): good vasoconstriction activity
- Increase of vasoconstriction activity of LE by addition of the same amount of HC or PRN ([3]; co-administration of 0.1 mM HC or PRN): 60-80%
- Increase of vasoconstriction activity of LE by addition of the same amount of HC or PRN ([3]; co-administration of 1 mM HC or PRN): 60-75%
- Activity relative to hydrocortisone [4]: approximately 20 times
- Intrinsic activity in in vitro receptor binding studies (in words) (glucocorticoid receptor [5]; Druzgala et al. 1991, [3H]-triamcinolone acetonide tracer, 10^−5M cortienic acid as competitor): intrinsically active
- rBA (relative receptor binding affinity) (glucocorticoid receptor [5]; relative to dexamethasone = 100, average of all values if multiple available): 150
